Experiments:
Experiment in all cases: KINOMEscan competition binding
Conditions in all cases: compound 10.0 µM
NEK7 (human) = NEK7 (human) (UniProt Q8TDX7)
MAPKAPK5 (human) = MAPKAPK5 (human) (UniProt Q8IW41)
CDK4 CCND1 (human) = CDK4 CCND1 (human) (UniProt P11802+P24385)
RIPK4 (human) = RIPK4 (human) (UniProt P57078)
NUAK1 (human) = NUAK1 (human) (UniProt O60285)
PRKD3 (human) = PRKD3 (human) (UniProt O94806)
[1] = system: BMX (human), P51813 [V600E]
MYLK4 (human) = MYLK4 (human) (UniProt Q86YV6)
[2] = biological target: JAK1 JH2 pseudokinase (human) (UniProt P23458)
MAP3K11 (human) = MAP3K11 (human) (UniProt Q16584)
PIK3CD (human) = PIK3CD (human) (UniProt O00329)
NEK3 (human) = NEK3 (human) (UniProt P51956)
MAST1 (human) = MAST1 (human) (UniProt Q9Y2H9)
PRKG2 (human) = PRKG2 (human) (UniProt Q13237)
PRKCE (human) = PRKCE (human) (UniProt Q02156)
TEC (human) = TEC (human) (UniProt P42680)
TGFBR1 (human) = TGFBR1 (human) (UniProt P36897)
SRPK1 (human) = SRPK1 (human) (UniProt Q96SB4)
IRAK1 (human) = IRAK1 (human) (UniProt P51617)
TNK1 (human) = TNK1 (human) (UniProt Q13470)
LATS2 (human) = LATS2 (human) (UniProt Q9NRM7)
LYN (human) = LYN (human) (UniProt P07948)
DAPK2 (human) = DAPK2 (human) (UniProt Q9UIK4)
AKT2 (human) = AKT2 (human) (UniProt P31751)
OXSR1 (human) = OXSR1 (human) (UniProt O95747)
MAP3K4 (human) = MAP3K4 (human) (UniProt Q9Y6R4)
SRMS (human) = SRMS (human) (UniProt Q9H3Y6)
MAPK7 (human) = MAPK7 (human) (UniProt Q13164)
PRKCD (human) = PRKCD (human) (UniProt Q05655)
LATS1 (human) = LATS1 (human) (UniProt O95835)
STK25 (human) = STK25 (human) (UniProt O00506)
PRKCQ (human) = PRKCQ (human) (UniProt Q04759)
STK38L (human) = STK38L (human) (UniProt Q9Y2H1)
PRKX (human) = PRKX (human) (UniProt P51817)
ADCK3 (human) = ADCK3 (human) (UniProt Q8NI60)
IRAK3 (human) = IRAK3 (human) (UniProt Q9Y616)
ACVR2A (human) = ACVR2A (human) (UniProt P27037)
TNNI3K (human) = TNNI3K (human) (UniProt Q59H18)
CSK (human) = CSK (human) (UniProt P41240)
PRKAA2 (human) = PRKAA2 (human) (UniProt P54646)
Chain of PRKAA2 (human) (P54646 whole entry, looked up): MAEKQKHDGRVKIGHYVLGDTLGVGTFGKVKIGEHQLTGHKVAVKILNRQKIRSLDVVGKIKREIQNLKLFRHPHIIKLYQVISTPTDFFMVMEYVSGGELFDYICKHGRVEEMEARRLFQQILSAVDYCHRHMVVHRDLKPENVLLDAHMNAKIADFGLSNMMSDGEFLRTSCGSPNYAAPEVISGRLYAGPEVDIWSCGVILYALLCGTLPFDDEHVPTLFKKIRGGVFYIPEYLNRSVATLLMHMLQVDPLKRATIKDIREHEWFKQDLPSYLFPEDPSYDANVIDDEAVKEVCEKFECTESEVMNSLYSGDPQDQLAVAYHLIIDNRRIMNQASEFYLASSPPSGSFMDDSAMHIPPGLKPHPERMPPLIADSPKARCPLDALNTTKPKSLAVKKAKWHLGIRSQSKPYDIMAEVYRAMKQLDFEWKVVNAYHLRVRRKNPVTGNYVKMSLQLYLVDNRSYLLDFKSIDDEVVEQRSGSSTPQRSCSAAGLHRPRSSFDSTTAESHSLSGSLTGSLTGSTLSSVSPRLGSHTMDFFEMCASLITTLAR

Chain of AKT2 (human) (P31751 whole entry, looked up): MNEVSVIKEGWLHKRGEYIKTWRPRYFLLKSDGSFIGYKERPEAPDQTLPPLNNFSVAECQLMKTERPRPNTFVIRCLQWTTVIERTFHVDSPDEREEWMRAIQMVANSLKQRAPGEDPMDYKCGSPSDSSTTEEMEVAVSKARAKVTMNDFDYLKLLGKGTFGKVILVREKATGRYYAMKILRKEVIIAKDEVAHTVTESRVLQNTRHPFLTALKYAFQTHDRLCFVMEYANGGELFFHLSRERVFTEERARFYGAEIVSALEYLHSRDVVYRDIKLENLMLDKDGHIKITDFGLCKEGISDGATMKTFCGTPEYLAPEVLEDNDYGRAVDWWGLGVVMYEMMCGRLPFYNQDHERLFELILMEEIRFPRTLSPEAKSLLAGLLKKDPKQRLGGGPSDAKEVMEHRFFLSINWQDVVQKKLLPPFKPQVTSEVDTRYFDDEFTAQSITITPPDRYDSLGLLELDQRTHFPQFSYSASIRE
Chain of LATS2 (human) (Q9NRM7 whole entry, looked up): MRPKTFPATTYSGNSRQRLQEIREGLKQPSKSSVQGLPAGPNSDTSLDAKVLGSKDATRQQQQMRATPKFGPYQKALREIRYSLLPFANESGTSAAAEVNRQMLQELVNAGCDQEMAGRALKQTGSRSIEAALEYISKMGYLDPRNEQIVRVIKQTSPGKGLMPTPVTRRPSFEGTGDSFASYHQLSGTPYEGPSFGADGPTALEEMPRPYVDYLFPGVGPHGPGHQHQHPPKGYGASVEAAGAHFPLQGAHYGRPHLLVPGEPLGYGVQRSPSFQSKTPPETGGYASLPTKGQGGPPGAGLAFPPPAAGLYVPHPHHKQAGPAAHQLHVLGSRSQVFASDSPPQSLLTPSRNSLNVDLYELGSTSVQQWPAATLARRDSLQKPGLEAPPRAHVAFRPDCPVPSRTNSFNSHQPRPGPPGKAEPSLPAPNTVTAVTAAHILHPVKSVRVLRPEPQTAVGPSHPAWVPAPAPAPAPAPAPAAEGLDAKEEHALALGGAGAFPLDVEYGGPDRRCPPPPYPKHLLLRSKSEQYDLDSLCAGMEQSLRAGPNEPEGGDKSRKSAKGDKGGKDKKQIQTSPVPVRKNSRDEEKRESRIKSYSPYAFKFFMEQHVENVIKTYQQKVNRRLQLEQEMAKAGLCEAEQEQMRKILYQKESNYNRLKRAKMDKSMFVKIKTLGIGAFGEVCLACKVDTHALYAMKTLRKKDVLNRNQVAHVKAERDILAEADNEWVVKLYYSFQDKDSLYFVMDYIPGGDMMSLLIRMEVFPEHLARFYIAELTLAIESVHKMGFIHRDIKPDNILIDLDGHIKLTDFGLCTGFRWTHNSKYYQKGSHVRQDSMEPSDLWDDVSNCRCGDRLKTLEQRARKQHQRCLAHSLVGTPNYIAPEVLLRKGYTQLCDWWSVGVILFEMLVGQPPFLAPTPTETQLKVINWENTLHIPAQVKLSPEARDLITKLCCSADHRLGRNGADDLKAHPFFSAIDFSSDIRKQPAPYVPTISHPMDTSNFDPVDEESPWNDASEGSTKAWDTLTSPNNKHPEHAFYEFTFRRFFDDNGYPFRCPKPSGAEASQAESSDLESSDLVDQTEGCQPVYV
Chain of TGFBR1 (human) (P36897 whole entry, looked up): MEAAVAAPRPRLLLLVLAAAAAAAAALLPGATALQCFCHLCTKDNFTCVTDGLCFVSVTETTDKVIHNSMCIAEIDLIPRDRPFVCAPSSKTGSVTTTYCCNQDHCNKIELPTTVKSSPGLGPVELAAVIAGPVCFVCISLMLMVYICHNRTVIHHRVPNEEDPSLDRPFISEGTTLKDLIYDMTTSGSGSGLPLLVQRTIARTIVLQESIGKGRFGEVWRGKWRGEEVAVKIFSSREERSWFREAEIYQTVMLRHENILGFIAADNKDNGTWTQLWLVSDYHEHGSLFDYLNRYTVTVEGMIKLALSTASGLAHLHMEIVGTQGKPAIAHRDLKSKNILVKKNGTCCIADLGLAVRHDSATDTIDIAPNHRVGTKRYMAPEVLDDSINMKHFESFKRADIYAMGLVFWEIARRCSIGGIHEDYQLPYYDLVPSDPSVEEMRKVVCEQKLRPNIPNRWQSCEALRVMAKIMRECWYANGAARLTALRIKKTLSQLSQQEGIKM
Chain of NEK3 (human) (P51956 whole entry, looked up): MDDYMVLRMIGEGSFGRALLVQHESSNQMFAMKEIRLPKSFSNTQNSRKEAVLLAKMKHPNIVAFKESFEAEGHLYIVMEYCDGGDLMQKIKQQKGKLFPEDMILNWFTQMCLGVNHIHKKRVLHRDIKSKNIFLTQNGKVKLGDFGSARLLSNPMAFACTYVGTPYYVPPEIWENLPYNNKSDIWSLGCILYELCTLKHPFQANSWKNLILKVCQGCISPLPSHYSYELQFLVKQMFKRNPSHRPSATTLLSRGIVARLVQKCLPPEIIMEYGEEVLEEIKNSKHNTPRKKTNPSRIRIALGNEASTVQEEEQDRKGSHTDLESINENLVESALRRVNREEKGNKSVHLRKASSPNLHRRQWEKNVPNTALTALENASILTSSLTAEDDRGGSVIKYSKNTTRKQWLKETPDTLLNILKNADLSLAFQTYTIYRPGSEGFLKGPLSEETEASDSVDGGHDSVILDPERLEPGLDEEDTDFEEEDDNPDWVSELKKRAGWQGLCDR
Chain of NUAK1 (human) (O60285 whole entry, looked up): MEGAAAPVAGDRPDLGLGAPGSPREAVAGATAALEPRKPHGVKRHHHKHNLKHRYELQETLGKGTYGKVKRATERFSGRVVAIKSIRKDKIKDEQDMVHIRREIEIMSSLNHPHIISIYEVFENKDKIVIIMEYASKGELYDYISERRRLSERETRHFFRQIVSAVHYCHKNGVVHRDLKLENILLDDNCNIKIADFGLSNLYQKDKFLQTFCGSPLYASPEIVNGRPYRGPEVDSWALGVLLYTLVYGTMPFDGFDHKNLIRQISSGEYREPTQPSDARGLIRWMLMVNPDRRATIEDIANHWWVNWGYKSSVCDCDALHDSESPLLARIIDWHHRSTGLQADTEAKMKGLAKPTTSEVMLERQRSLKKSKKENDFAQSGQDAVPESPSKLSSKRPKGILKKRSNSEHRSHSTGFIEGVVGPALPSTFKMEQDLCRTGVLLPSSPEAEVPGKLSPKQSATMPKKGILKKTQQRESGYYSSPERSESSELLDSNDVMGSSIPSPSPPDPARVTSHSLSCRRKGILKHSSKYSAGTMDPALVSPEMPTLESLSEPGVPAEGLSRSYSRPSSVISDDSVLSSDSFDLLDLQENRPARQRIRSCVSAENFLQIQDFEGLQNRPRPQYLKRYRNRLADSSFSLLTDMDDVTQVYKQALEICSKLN
Chain of PRKCQ (human) (Q04759 whole entry, looked up): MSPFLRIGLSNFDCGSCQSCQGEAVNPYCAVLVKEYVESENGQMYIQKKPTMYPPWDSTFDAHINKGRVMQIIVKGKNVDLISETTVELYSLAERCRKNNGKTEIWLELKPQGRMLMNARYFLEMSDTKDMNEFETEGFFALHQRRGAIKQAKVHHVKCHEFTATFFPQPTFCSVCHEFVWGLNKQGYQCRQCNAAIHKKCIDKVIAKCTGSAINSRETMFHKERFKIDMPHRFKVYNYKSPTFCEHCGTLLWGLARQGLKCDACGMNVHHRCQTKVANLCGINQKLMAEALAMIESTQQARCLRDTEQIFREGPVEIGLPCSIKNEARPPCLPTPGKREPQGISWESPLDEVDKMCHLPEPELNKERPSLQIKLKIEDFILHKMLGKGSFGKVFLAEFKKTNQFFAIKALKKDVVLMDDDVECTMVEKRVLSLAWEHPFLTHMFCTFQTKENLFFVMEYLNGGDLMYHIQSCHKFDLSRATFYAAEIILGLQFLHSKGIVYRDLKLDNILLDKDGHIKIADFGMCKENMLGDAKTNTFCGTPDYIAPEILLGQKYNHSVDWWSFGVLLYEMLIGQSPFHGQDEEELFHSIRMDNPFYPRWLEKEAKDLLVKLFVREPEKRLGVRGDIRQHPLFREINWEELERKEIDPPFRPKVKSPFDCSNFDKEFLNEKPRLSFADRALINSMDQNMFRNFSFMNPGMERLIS
Chain of LYN (human) (P07948 whole entry, looked up): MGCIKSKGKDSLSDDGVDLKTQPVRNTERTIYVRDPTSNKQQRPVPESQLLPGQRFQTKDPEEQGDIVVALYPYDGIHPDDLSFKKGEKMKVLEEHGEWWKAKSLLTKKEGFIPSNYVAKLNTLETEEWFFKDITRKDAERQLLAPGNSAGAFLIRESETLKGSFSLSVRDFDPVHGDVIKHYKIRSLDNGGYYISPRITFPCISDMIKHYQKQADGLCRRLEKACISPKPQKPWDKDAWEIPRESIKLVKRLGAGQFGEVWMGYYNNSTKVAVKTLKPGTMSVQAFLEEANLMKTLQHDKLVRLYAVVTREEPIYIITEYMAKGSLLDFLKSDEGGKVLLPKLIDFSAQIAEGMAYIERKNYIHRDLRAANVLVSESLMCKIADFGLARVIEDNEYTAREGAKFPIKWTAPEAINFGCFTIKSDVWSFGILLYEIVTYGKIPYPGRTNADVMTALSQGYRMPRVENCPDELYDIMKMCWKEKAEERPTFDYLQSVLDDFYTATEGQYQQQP

SMILES	kinase still bound, per cent of control (NEK7 (human))	kinase still bound, per cent of control (MAPKAPK5 (human))	kinase still bound, per cent of control (CDK4 CCND1 (human))	kinase still bound, per cent of control (RIPK4 (human))	kinase still bound, per cent of control (NUAK1 (human))	kinase still bound, per cent of control (PRKD3 (human))	kinase still bound, per cent of control [1]	kinase still bound, per cent of control (MYLK4 (human))	kinase still bound, per cent of control [2]	kinase still bound, per cent of control (MAP3K11 (human))	kinase still bound, per cent of control (PIK3CD (human))	kinase still bound, per cent of control (NEK3 (human))	kinase still bound, per cent of control (MAST1 (human))	kinase still bound, per cent of control (PRKG2 (human))	kinase still bound, per cent of control (PRKCE (human))	kinase still bound, per cent of control (TEC (human))	kinase still bound, per cent of control (TGFBR1 (human))	kinase still bound, per cent of control (SRPK1 (human))	kinase still bound, per cent of control (IRAK1 (human))	kinase still bound, per cent of control (TNK1 (human))	other results
C=CC(=O)Nc1ccc(C(=O)c2sc(Nc3ccc(N4CCN(C)CC4)cc3OC)nc2N)cc1	100%	14%	10%	89%	100%	54%	92%	66%	65%	100%	100%	70%	0%	81%	81%	98%	96%	71%	41%	22%	kinase still bound, per cent of control (LATS2 (human)): 100%; kinase still bound, per cent of control (LYN (human)): 100%; kinase still bound, per cent of control (DAPK2 (human)): 2.8%; kinase still bound, per cent of control (AKT2 (human)): 100%; kinase still bound, per cent of control (OXSR1 (human)): 10%; kinase still bound, per cent of control (MAP3K4 (human)): 100%; kinase still bound, per cent of control (SRMS (human)): 66%; kinase still bound, per cent of control (MAPK7 (human)): 9.8%; kinase still bound, per cent of control (PRKCD (human)): 100%; kinase still bound, per cent of control (LATS1 (human)): 82%; kinase still bound, per cent of control (STK25 (human)): 100%; kinase still bound, per cent of control (PRKCQ (human)): 93%; kinase still bound, per cent of control (STK38L (human)): 68%; kinase still bound, per cent of control (PRKX (human)): 99%; kinase still bound, per cent of control (ADCK3 (human)): 42%; kinase still bound, per cent of control (IRAK3 (human)): 96%; kinase still bound, per cent of control (ACVR2A (human)): 100%; kinase still bound, per cent of control (TNNI3K (human)): 89%; kinase still bound, per cent of control (CSK (human)): 87%; kinase still bound, per cent of control (PRKAA2 (human)): 100%
N#Cc1cc(-c2ccnc(Nc3ccc(-n4cnc(-c5cccnc5)n4)cc3)n2)cc(N2CCOCC2)c1	45%	100%	100%	53%	100%	100%	72%	26%	0.95%	46%	100%	0.75%	100%	74%	100%	93%	73%	30%	9.3%	25%	kinase still bound, per cent of control (LATS2 (human)): 62%; kinase still bound, per cent of control (LYN (human)): 78%; kinase still bound, per cent of control (DAPK2 (human)): 96%; kinase still bound, per cent of control (AKT2 (human)): 100%; kinase still bound, per cent of control (OXSR1 (human)): 96%; kinase still bound, per cent of control (MAP3K4 (human)): 50%; kinase still bound, per cent of control (SRMS (human)): 62%; kinase still bound, per cent of control (MAPK7 (human)): 100%; kinase still bound, per cent of control (PRKCD (human)): 65%; kinase still bound, per cent of control (LATS1 (human)): 100%; kinase still bound, per cent of control (STK25 (human)): 64%; kinase still bound, per cent of control (PRKCQ (human)): 100%; kinase still bound, per cent of control (STK38L (human)): 100%; kinase still bound, per cent of control (PRKX (human)): 55%; kinase still bound, per cent of control (ADCK3 (human)): 38%; kinase still bound, per cent of control (IRAK3 (human)): 12%; kinase still bound, per cent of control (ACVR2A (human)): 16%; kinase still bound, per cent of control (TNNI3K (human)): 80%; kinase still bound, per cent of control (CSK (human)): 66%; kinase still bound, per cent of control (PRKAA2 (human)): 94%
COc1cc2c(Nc3ccc(NC(=O)c4ccccc4)cc3)ncnc2cc1OCCCN1CCOCC1	100%	100%	93%	56%	92%	100%	100%	100%	32%	20%	100%	100%	100%	91%	100%	76%	100%	100%	66%	69%	kinase still bound, per cent of control (LATS2 (human)): 82%; kinase still bound, per cent of control (LYN (human)): 7.2%; kinase still bound, per cent of control (DAPK2 (human)): 90%; kinase still bound, per cent of control (AKT2 (human)): 100%; kinase still bound, per cent of control (OXSR1 (human)): 100%; kinase still bound, per cent of control (MAP3K4 (human)): 62%; kinase still bound, per cent of control (SRMS (human)): 2.4%; kinase still bound, per cent of control (MAPK7 (human)): 89%; kinase still bound, per cent of control (PRKCD (human)): 100%; kinase still bound, per cent of control (LATS1 (human)): 100%; kinase still bound, per cent of control (STK25 (human)): 63%; kinase still bound, per cent of control (PRKCQ (human)): 100%; kinase still bound, per cent of control (STK38L (human)): 100%; kinase still bound, per cent of control (PRKX (human)): 81%; kinase still bound, per cent of control (ADCK3 (human)): 90%; kinase still bound, per cent of control (IRAK3 (human)): 17%; kinase still bound, per cent of control (ACVR2A (human)): 100%; kinase still bound, per cent of control (TNNI3K (human)): 94%; kinase still bound, per cent of control (CSK (human)): 7.9%; kinase still bound, per cent of control (PRKAA2 (human)): 72%
